Reference: patent US5079246A, “Novel indoloquinlones” (Beacham Group p. l. c., priority 1988, dated 1992)

Columns and labels:
[1] = Geller-Seifter procedure (anxiolytic conflict test in rats); type: in vivo; conditions: Rattus norvegicus, po, 1 h, 60 min before testing, read-out: increase in responding in the `conflict` session (percentage increase in square root of total lever presses in FR5); for change in vivo at 20 mg/kg: 20 mg/kg p.o.
Procedure: Potential anxiolytic properties have been evaluated using the Geller-Seifter procedure based on that originally described by Geller and Seifter (1960) Psychopharmacologia, 1, 482-492.
Rats are trained on a variable interval 30 sec schedule (VI30) to press a lever in order to obtain food reward. The 3 min sessions of the VI30 schedule alternate with 3 min of a schedule (FR5) in which every 5th lever press is followed by a presentation of a food pellet paired with a 0.2 sec mild footshock. The amplitude of the shock is adjusted for each rat to give equivalent response rates. The total study consists of VI and FR components and lasts 30 mins. Rats typically respond with high rates of lever pressing under the VI30 schedule and low response rats under the FR5 `conflict` session. Anxiolytic drugs increase the suppressed response rates of rats in `conflict` sessions.
The compound is administered intraperitoneally or orally to groups of 6-16 rats 30 min (intraperitoneal route) or 60 min (oral route) before testing.
The results are expressed as the percentage increase in square root of the total number of lever presses in the FR5 `conflict` sessions. Square root transformation is necessary to normalise the data for statistical analysis using parametric methods. A change in the square root of the VI can indicate non-specific drug effects i.e. stimulation or sedation.

[2] = biological target: site on or near the Cl^- channel portion of the GABAA /BDZ/Cl^- channel complex; test: [^35 S]-TBPS binding to rat cerebral cortex membranes in vitro; conditions: 2 nM [^35 S]-TBPS, pH 7.1, 25° C.
Procedure: [^35 S]-TBPS binding to rat cerebral cortex membranes in vitro
[^35 S]-TBPS labels a site on or near the Cl^- channel portion of the GABAA /BDZ/Cl^- channel complex. Literature studies have shown that [^35 S]-TBPS binding is directly related to the permeability of the Cl^- channel (e.g. Concas et al, 1988).
Modulation of [^35 S]-TBPS binding is measured by a method similar to that of Gee et al (1986).
Pooled rat cerebral cortices were homogenised in 20 volumes of 0.32M sucrose and centrifuged at 1000 g for 20 minutes (4° C.). The supernatant was removed and recentrifuged at 50,000 g (4° C., 20 mins). The P2 pellet was then suspended in 20 volumes of Tris citrate buffer (pH 7.1) and centrifuged at 50,000 g (4° C., 20 mins). This washing step was repeated three times and the pellet finally resuspended in 20 volumes of buffer and stored at -70° C. prior to use.
[…] Non-specific binding was measured in the presence of 10^-4 M picrotoxin. Varying concentrations of test drugs 10^-7, 10^-6, 10^-5 and 10^-4 M final concentration)were added in a volume of 50 μl. The total assay volume was 500 μl. Incubation was stopped by rapid filtration using a Skatron cell harvester and radioactivity measured by liquid scintillation spectrometry. IC50 's were calculated as the concentration of test drug to inhibit 50% of specific binding. Concas A. et al, (1988) J. Neurochem. 51(6), 1868-1876. Gee K. W. et al, (1986) Mol. Pharmacol. 30, 218-225.

| Compound | IC50 ([2]; done in the presence of GABA) | IC50 ([2]; done in the absence of GABA) | change in vivo at 100 mg/kg ([1]; 100 mg/kg p.o.) | change in vivo at 20 mg/kg [1] |
| --- | --- | --- | --- | --- |
| Cn1c2ccccc2c2c(N)c3c(nc21)CCC3=O [Example E17, 10-Amino-5-methyl-cyclopenta[5,6]pyrido[2,3-b]indol-1-one] | – | – | 37% | – |
| CCCn1c2ccccc2c2c(N)c3c(nc21)CCCC3=O [Example E6, 11-Amino-6-n-propyl-1,2,3,4-tetrahydro-6H-quinindolin-1-one] | – | 3800 nM | – | 17% |
| Cn1c2ccccc2c2c(N)c3c(nc21)CCCC3=O [Example E4, 11-Amino-6-methyl-1,2,3,4-tetrahydro-6H-quinindolin-1-one] | – | – | – | 29% |
| Nc1c2c(nc3[nH]c4ccccc4c13)CCCC2=O [Example E1, 11-Amino-1,2,3,4-tetrahydro-6H-quinindolin-1-one] | – | – | – | 16% |
| CC1CC(=O)c2c(nc3c(c2N)c2ccccc2n3C)C1 (racemic) [Example E10, (±) 11-Amino-3,6-dimethyl-1,2,3,4-tetrahydro-6H-quinindolin-1-one] | – | – | – | 17% |
| C=CCn1c2ccccc2c2c(N)c3c(nc21)CCCC3=O [Example E7, 11-Amino-6-(2-propenyl)-1,2,3,4-tetrahydro-6H-quinindolin-1-one] | 1900 nM | – | – | 16% |

The next lines start with results.

| IC50 ([2]; done in the presence of GABA) | IC50 ([2]; done in the absence of GABA) | Compound | change in vivo at 100 mg/kg ([1]; 100 mg/kg p.o.) | change in vivo at 20 mg/kg [1] |
| --- | --- | --- | --- | --- |
| 3300 nM | – | Cn1c2ccccc2c2c(N)c3c(nc21)CCCCC3=O [Example E16, 12-Amino-7-methyl-cyclohepta[5,6]pyrido[2,3-b]indol-1-one] | – | 11% |
| 1000 nM | – | C#CCC1CCc2nc3c(c(N)c2C1=O)c1ccccc1n3C (racemic) [Example E14, (±) 11-Amino-6-methyl-2-(2-propynyl)-1,2,3,4-tetrahydro-6H-quinindolin-1-one] | – | – |
| 1700 nM | – | Cn1c2ccccc2c2c(N)c3c(nc21)CCC(C)(C)C3=O [Example E13, 11-Amino-1,2,3,4-tetrahydro-2,2,6-trimethyl-6H-quinindolin-1-one] | – | 21% |
| – | 7500 nM | CCn1c2ccccc2c2c(N)c3c(nc21)CCCC3=O [Example E5, 11-Amino-6-ethyl-1,2,3,4-tetrahydro-6H-quinindolin-1-one] | – | 29% |
| 1200 nM | – | CC1CCc2nc3c(c(N)c2C1=O)c1ccccc1n3C (racemic) [Example E11, (±) 11-Amino-2,6-dimethyl-1,2,3,4-tetrahydro-6H-quinindolin-1-one] | – | 52% |
| – | 4400 nM | Cn1c2ccccc2c2c(N)c3c(nc21)CC(C)(C)CC3=O [Example E8, 11-Amino-1,2,3,4-tetrahydro-3,3,6-trimethyl-6H-quinindolin-1-one] | – | – |
| 3800 nM | – | CC1CC(C)c2nc3c(c(N)c2C1=O)c1ccccc1n3C (racemic) [Example E15, (±) 11-Amino-1,2,3,4-tetrahydro-2,4,6-trimethyl-6H-quinindolin-1-one] | – | – |
| 1400 nM | – | CCC1CCc2nc3c(c(N)c2C1=O)c1ccccc1n3C (racemic) [Example E12, (±) 11-Amino-2-ethyl-6-methyl-1,2,3,4-tetrahydro-6H-quinindolin-1-one] | – | 33% |
